How the values were obtained:
[1] = tested on: Heterodera schachtii; assay: Heterodera schachtii (sugar beet cyst nematode), nematicide, contact activity: juvenile paralysis in 16-well assay plates; format: in vivo; conditions: 200 ppm, approx. 500 juveniles per well, 24 hours incubation at 25° C. in darkness, read-out: nematode immobilization compared to the untreated control
[2] = tested on: Meloidogyne spp.; assay: Meloidogyne spp. (root-knot nematode), nematicide, contact activity, preventive: cucumber seed in filter paper pouch; format: in vivo; conditions: 288 h, cucumber cv. Toshka seed in pouch, 3000 eggs, twelve days, read-out: reduction of galling compared to the untreated control
Description: Meloidogyne spp. (Root-Knot Nematode) Nematicide, Contact Activity, Preventive. Filter papers (9 cm×4.5 cm) with a small pocket were placed into plastic pouches (12 cm×6 cm). One cucumber cv. Toshka seed was placed in the centre of the filter paper pocket of all the pouches needed for a test. The cucumber seeds in the pouches were treated with test solutions at 200 ppm by pipetting the solution directly over the cucumber seed in the filter paper pocket in the pouch. Prior to application, the compound solution was prepared at twice the concentration required and the egg suspension is prepared with FORL nutrient solution with 3000 eggs/0.5 ml. After applying all the treatments, 3000 eggs (in 0.5 ml of FORL nutrient solution) were pipetted into the pouches. The pouches were incubated in a moist chamber for twelve days and watered regularly to maintain good filter paper moisture essential for the growing cucumber root system. After this period, the filter paper containing the germinated cucumber seedling was removed from the plastic pouch to assess the number of galls caused by Meloidogyne spp. per root system. Phytotoxicity was measured as a reduction of growth of the emerged cucumber seedling in comparison to the control.

O=C(N[C@H]1CC[C@H]1c1ccc(Cl)cc1Cl)c1c(F)cccc1Cl [Compound 61.66, 2-chloro-N-[(1S,2S)-2-(2,4-dichlorophenyl)cyclobutyl]-6-fluorobenzamide]
pest or weed control at 200 ppm [1]: > 75% | pest or weed control at 200 ppm [2]: > 80%

COc1cccc(F)c1C(=O)N[C@H]1CC[C@H]1c1ccc(Cl)cc1Cl [Compound 61.68, N-[(1S,2S)-2-(2,4-dichlorophenyl)cyclobutyl]-2-fluoro-6-methoxybenzamide]
pest or weed control at 200 ppm [1]: > 75% | pest or weed control at 200 ppm [2]: > 80%

Cc1cccc(F)c1C(=O)N[C@H]1CC[C@H]1c1ccc(Cl)cc1Cl [Compound 61.69, N-[(1S,2S)-2-(2,4-dichlorophenyl)cyclobutyl]-2-fluoro-6-methylbenzamide]
pest or weed control at 200 ppm [1]: > 75% | pest or weed control at 200 ppm [2]: > 80%

Cn1cccc1C(=O)N[C@H]1CC[C@H]1c1ccc(Cl)cc1Cl [Compound 61.76, N-[(1S,2S)-2-(2,4-dichlorophenyl)cyclobutyl]-1-methylpyrrole-2-carboxamide]
pest or weed control at 200 ppm [1]: > 75% | pest or weed control at 200 ppm [2]: > 80%

Cn1cc(C(=O)N[C@H]2CC[C@H]2c2ccc(Cl)cc2Cl)c(C(F)F)n1 [Compound 61.77, N-[(1S,2S)-2-(2,4-dichlorophenyl)cyclobutyl]-3-(difluoromethyl)-1-methylpyrazole-4-carboxamide]
pest or weed control at 200 ppm [1]: > 75% | pest or weed control at 200 ppm [2]: > 80%

O=C(N[C@H]1CC[C@H]1c1ccc(Cl)cc1Cl)c1ccsc1Cl [Compound 61.95, 2-chloro-N-[(1S,2S)-2-(2,4-dichlorophenyl)cyclobutyl]thiophene-3-carboxamide]
pest or weed control at 200 ppm [1]: > 75% | pest or weed control at 200 ppm [2]: > 80%

From patent USRE50724E1, “4-membered ring carboxamides used as nematicides” (SYNGENTA CROP PROTECTION AG, priority 2013, dated 2026)
